According to patent publication US5037812A, “Tumor cell growth-inhibiting pharmaceutical compositions containing phosphino-hydrocarbon-gold, silver or copper complexes” (priority 1986, dated 1991):
Values joined by “and” are separate entries in the source; they are usually repeats but may differ in a detail not shown here. Equal entries are not always repeated.

How the values were obtained:
P388 leukemia = test: ip P388 leukemia mouse model; assay type: in vivo, mice (B6D2F1); settings: for ILS max (maximum increase in lifespan): mice bearing ip P388 leukemia, ip days 1-5 at MTD, slash-separated figures are separate experiments; for MTD (maximally tolerated dose): B6D2F female mice, ip qDX5
Experimental: This tumor system is widely accepted as an antitumor agent screening tool because it is sensitive to virtually all of the clinically active antineoplastic agents; quantitative and reproducible; amenable for large-scale screening; and predictive for activity in other animal tumor models.
10^6 P388 leukemia cells are inoculated ip in B6D2F1 mice. Twenty-four hours later, if the tumor inoculum proves to be free of bacterial contamination (as determined by 24 hours incubation in thioglycollate broth), animals are randomized into groups of 6 and housed in shoebox cages. […] An equal volume of saline or water is added; if the drug comes out of solution an equal volume of Cremophor (polyethoxylated castor oil) is added and then saline or water, as to a concentration such that the desired dose is delivered in 0.5 ml. The final concentration of DMA, ethanol or Cremophor is 10 percent. Dilutions for lower doses are made with saline or water so that there is a decreasing proportion of organic solvents in the vehicle with decreasing dosage. […] Formulations are prepared immediately prior to injection. The Formula (I) and Formula (II) compounds are administered ip on Days 1 through 5 (i.e., treatment is initiated 24 hrs after tumor inoculation). Each experiment includes three groups of 6 animals as untreated controls and animals treated with a positive control, cisplatin, at two dose levels. Animals are weighed as a group on Days 1, 5 and 9 and average weight change (Δwt.) is used as a reflection of toxicity. Each experiment also includes an inoculum titration--groups of 8 mice inoculated ip with 10^5 to 10^0 P388 leukemia cells. The titration is used as a quality control check for the performance of the tumor model. Animals are monitored daily for mortality and experiments are terminated after 45 days. The endpoint is median survival time (MST) and increase in lifespan (ILS) which is the percentage of increase in MST relative to untreated controls.

[1] = solubility in 9:1 water:ethanol (HPLC of filtrate); settings: stirred 15 hours, 0.45 μm PTFE filter, HPLC
Experimental: Such solubility was determined as follows: The compound in question was dissolved or suspended in absolute ethanol (250 mg solid per 1.0 ml ethanol). To the resulting solution or suspension, water (9.0 times the volume of ethanol) was added. This suspension was stirred vigorously for 15 hours, then filtered through a 0.45 μm poly(tetrafluoroethylene) (PTFE) filter. […] The HPLC system was as follows:
Column PLRP-S, 5μm, obtained from Polymer Laboratories, Inc.
Mobile Phase 9:1 acetonitrile:0.1% tetra-n-butylammonium hydrogen sulfate (50° C., 1.0 ml-min-^-1)
Detection Ultraviolet (250 nm)

B16 melanoma = test: in vivo ip B16 melanoma assay; design: species or system mice (B6D2F1); settings: ip qDX10; for MTD (maximally tolerated dose): B6D2F1 mice; for ILS (maximum increase in lifespan): mice bearing ip B16 melanoma, slash-separated figures are separate experiments
Experimental: Daily treatment is begun 24 hours after tumor implantation and is continued daily for ten (10) days. The route of drug administration is ip. The mice are monitored daily for survival for sixty (60) days. Antitumor activity is assessed by prolongation of median survival time. An ILS of ≥25% indicates activity in this tumor model.
^(b) maximally tolerated dose for B6D2F1 mice on an ip qDX10
^(c) maximum increase in lifespan produced in mice bearing ip B16

Compound	ILS max (maximum increase in lifespan) (P388 leukemia)	Solubility in 9:1 Water:Ethanol [1]	MTD (maximally tolerated dose) (P388 leukemia)	MTD (maximally tolerated dose) (B16 melanoma)	ILS (maximum increase in lifespan) (B16 melanoma)
Fc1cccc(P(CCP(c2cccc(F)c2)c2cccc(F)c2)c2cccc(F)c2)c1.Fc1cccc(P(CCP(c2cccc(F)c2)c2cccc(F)c2)c2cccc(F)c2)c1.[Au+].[Cl-] [compound 7, Bis[1,2-bis[bis(. Phosphino]ethane]Gold(I) Chloride]	45% and 55%	–	–	–	–
O=[N+]([O-])[O-].[Au+].c1ccc(P(CCP(c2ccccc2)c2ccccc2)c2ccccc2)cc1.c1ccc(P(CCP(c2ccccc2)c2ccccc2)c2ccccc2)cc1 [compound 5, Bis[1,2-bis(diphenylphosphino)ethane]Gold(I) Nitrate]	90 ± 17%	30 µg/mL	3 mg/kg	–	–
CC(O)C(=O)[O-].[Au+].c1ccc(P(CCP(c2ccccc2)c2ccccc2)c2ccccc2)cc1.c1ccc(P(CCP(c2ccccc2)c2ccccc2)c2ccccc2)cc1 [compound 15, Bis[1,2-bis(diphenylphosphino)ethane]gold(I) 2-hydroxypropanoate]	71 ± 12%	5200 µg/mL	2 mg/kg	1.5 mg/kg	30%
CCP(CC)CCP(c1ccccc1)c1ccccc1.CCP(CC)CCP(c1ccccc1)c1ccccc1.[Cl-].[Cu+] [compound 9]	48% and 45%	–	1.5 mg/kg	–	–
CCP(CC)CCP(CC)CC.CCP(CC)CCP(CC)CC.F[P-](F)(F)(F)(F)F.[Au+] [compound 10, Bis[1,2-bis(diethylphosphino)ethane]Gold(I) Hexafluorophosphate]	40% and 30%	–	4 mg/kg	–	–
O=C([O-])C1OC(O)C(O)C(O)C1O.[Au+].c1ccc(P(CCP(c2ccccc2)c2ccccc2)c2ccccc2)cc1.c1ccc(P(CCP(c2ccccc2)c2ccccc2)c2ccccc2)cc1 [compound 16, Bis[1,2-bis(diphenylphosphino)ethane]gold(I) glucuronate]	64 ± 17%	300 µg/mL	2 mg/kg	1.5 mg/kg	40%
CC(=O)C(=O)[O-].[Au+].c1ccc(P(CCP(c2ccccc2)c2ccccc2)c2ccccc2)cc1.c1ccc(P(CCP(c2ccccc2)c2ccccc2)c2ccccc2)cc1 [compound 21, Bis[1,2-bis(diphenylphosphino)ethane]gold(I) 2-oxopropanoate]	60% and 50%	200 µg/mL	2 mg/kg	–	–
CS(=O)(=O)[O-].[Au+].c1ccc(P(CCP(c2ccccc2)c2ccccc2)c2ccccc2)cc1.c1ccc(P(CCP(c2ccccc2)c2ccccc2)c2ccccc2)cc1 [compound 14, Bis[1,2-bis(diphenylphosphino)ethane]gold(I) methanesulfonate]	81 ± 17%	30 µg/mL	2 mg/kg	–	–
N#C[O-].[Au+].c1ccc(P(CCP(c2ccccc2)c2ccccc2)c2ccccc2)cc1.c1ccc(P(CCP(c2ccccc2)c2ccccc2)c2ccccc2)cc1 [compound 18, Bis[1,2-bis(diphenylphosphino)ethane]gold(I) cyanate]	84% and 50%	60 µg/mL	2 mg/kg	–	–
O=S(=O)([O-])[O-].c1ccc([PH]2(c3ccccc3)CC[PH](c3ccccc3)(c3ccccc3)[Au+]23[PH](c2ccccc2)(c2ccccc2)CC[PH]3(c2ccccc2)c2ccccc2)cc1.c1ccc([PH]2(c3ccccc3)CC[PH](c3ccccc3)(c3ccccc3)[Au+]23[PH](c2ccccc2)(c2ccccc2)CC[PH]3(c2ccccc2)c2ccccc2)cc1 (centres unmarked) [compound 17, Bis{bis[1,2-bis(diphenylphosphino)ethane]gold(I)} sulfate]	74% and 50%	30 µg/mL	2 mg/kg	–	–
CCC(O)C(=O)[O-].[Au+].c1ccc(P(CCP(c2ccccc2)c2ccccc2)c2ccccc2)cc1.c1ccc(P(CCP(c2ccccc2)c2ccccc2)c2ccccc2)cc1 [compound 24, Bis[1,2-bis(diphenylphosphino)ethane]gold(I) DL-2-hydroxybutanoate]	55% and 80%	900 µg/mL	2 mg/kg	–	–
O=C([O-])CCCO.[Au+].c1ccc(P(CCP(c2ccccc2)c2ccccc2)c2ccccc2)cc1.c1ccc(P(CCP(c2ccccc2)c2ccccc2)c2ccccc2)cc1 [compound 22, Bis[1,2-(diphenylphosphino)ethane]gold(I) 4-hydroxybutanoate]	65% and 70%	2900 µg/mL	2 mg/kg	–	–
Bis[1,2-bis[bis(4-fluorophenyl)phosphino]ethane Gold(I) Chloride [compound 6]	55% and 50%	–	3 mg/kg	–	–
O=C([O-])CO.[Au+].c1ccc(P(CCP(c2ccccc2)c2ccccc2)c2ccccc2)cc1.c1ccc(P(CCP(c2ccccc2)c2ccccc2)c2ccccc2)cc1 [compound 23, Bis[1,2-bis(diphenylphosphino)ethane]gold(I) hydroxyacetate]	55% and 75%	8600 µg/mL	2 mg/kg	–	–
O=S(=O)([O-])C(F)(F)F.[Au+].c1ccc(P(CCP(c2ccccc2)c2ccccc2)c2ccccc2)cc1.c1ccc(P(CCP(c2ccccc2)c2ccccc2)c2ccccc2)cc1 [compound 20, Bis[1,2-bis(diphenylphosphino)ethane]gold(I) trifluoromethanesulfonate]	63% and 75%	20 µg/mL	2 mg/kg	–	–
[Cl-].[Cu+].c1ccc(P(CCCP(c2ccccc2)c2ccccc2)c2ccccc2)cc1.c1ccc(P(CCCP(c2ccccc2)c2ccccc2)c2ccccc2)cc1 [compound 12, Bis[1,3-bis(diphenylphosphino)propane]Copper(I) Chloride]	92 ± 15%	–	2 mg/kg	1 mg/kg	32% and 47%
Bis[1,2-bis(diethylphosphino)ethane]Silver(I) Nitrate [compound 11]	50% and 40%	–	0.5 mg/kg	–	–
Tris{bis-[1,2-bis(diphenylphosphino)ethane]gold(I)} citrate [compound 19]	95% and 90%	30 µg/mL	4 mg/kg	–	–
